How the values were obtained:
[1] = tested on: control sera (pooled serum of ten healthy LUMC hospital workers; commercial negative donor pooled serum from the Dutch bloodbank); assay type: binding, human; parameters: Binding of Control serum LUMC to linear peptides / Binding of Control serum Blood-bank to linear peptides / Binding of Control serum LUMC to looped peptides / Binding of Control Serum Blood-Bank to Looped peptides / Binding of Control serum LUMC to linear peptides of the protein M of SARS-CoV Urbani / Binding of Control serum Blood-bank to linear peptides of the protein M of SARS-CoV Urbani / Binding of Control serum LUMC to looped peptides of the protein M of SARS-CoV Urbani / Binding of Control Serum Blood-Bank to Looped peptides of the protein M of SARS-CoV Urbani: unit not given here
[2] = tested on: recombinant human anti-SARS-CoV antibody 03-018; assay type: binding; parameters: Binding of antibody 03-018 to linear peptides of the N protein of SARS-CoV Urbani / Binding of antibody 03-018 to looped/cyclic peptides of the N protein of SARS-CoV Urbani: unit not given here
[3] = tested on: antibodies in sera from SARS patients (sera 1a, 1b, 2, 6, 37, 62, London, SARS-yellow, SARS-green); assay type: binding, human; parameters: Binding of serum 6 to linear peptides of protein X1 of SARS-CoV Urbani / Binding of serum 37 to linear peptides of protein X1 of SARS-CoV Urbani / Binding of serum 6 to looped/cyclic peptide (PEPSCAN-ELISA) / Binding of serum 37 to looped/cyclic peptide (PEPSCAN-ELISA) / Binding of serum 37 to looped/cyclic peptides of protein X1 of SARS-CoV Urbani / Binding of serum 6 to linear peptides of protein X2 / Binding of serum 37 to linear peptides of protein X2 / Binding of serum 37 to looped/cyclic peptides of protein X2 of SARS-CoV Urbani / Binding of serum 6 to linear peptides of protein M of SARS-CoV Urbani / Binding of serum 37 to linear peptides of protein M of SARS-CoV Urbani / Binding of serum 6 to looped/cyclic peptides of protein M of SARS-CoV Urbani / Binding of serum 37 to looped/cyclic peptides of protein M of SARS-CoV Urbani / Binding of serum 6 to linear peptides of protein X3 of SARS-CoV Urbani / Binding of serum 37 to linear peptides of protein X3 of SARS-CoV Urbani / Binding of serum 37 to looped/cyclic peptides of protein X3 of SARS-CoV Urbani / Binding of serum 6 to linear peptides of protein X4 of SARS-CoV Urbani / Binding of serum 37 to linear peptides of protein X4 of SARS-CoV Urbani / Binding of serum 37 to looped/cyclic peptides of protein X4 of SARS-CoV Urbani / Binding of serum 6 to linear peptides of protein X5 of SARS-CoV Urbani / Binding of serum 37 to linear peptides of protein X5 of SARS-CoV Urbani / Binding of serum 37 to looped/cyclic peptides of protein X5 of SARS-CoV Urbani / Binding of serum 6 to linear peptides of protein N of SARS-CoV Urbani / Binding of serum 37 to linear peptides of protein N of SARS-CoV Urbani / Binding of serum 6 to linear peptide (PEPSCAN-ELISA) / Binding of serum 1a to looped/cyclic peptides of protein N of SARS-CoV Urbani / Binding of serum 1b to looped/cyclic peptides of protein N of SARS-CoV Urbani / Binding of serum 2 to looped/cyclic peptides of protein N of SARS-CoV Urbani / Binding of serum 6 to looped/cyclic peptides of protein N of SARS-CoV Urbani / Binding of serum 37 to looped/cyclic peptides of protein N of SARS-CoV Urbani / Binding of serum 62 to looped/cyclic peptides of protein N of SARS-CoV Urbani / Binding of serum London to looped/cyclic peptides of protein N of SARS-CoV Urbani / Binding of serum SARS-green to looped/cyclic peptides of protein N of SARS-CoV Urbani: unit not given here
[4] = tested on: rabbit serum obtained by immunizing a rabbit with the SARS-CoV strain Frankfurt 1; assay type: binding; parameters: Binding of a rabbit serum to linear peptides / Binding of a rabbit serum to looped peptides / Rabbit serum linear peptides / Rabbit serum looped peptides / Binding of a rabbit serum to linear peptides of protein N of SARS-CoV Urbani (Rabbit serum linear peptides) / Binding of a rabbit serum to looped/cyclic peptides of protein N of SARS-CoV Urbani (Rabbit serum looped peptides): unit not given here

Sequence | Binding of Control Serum Blood-Bank to Looped peptides [1] | Binding of Control serum Blood-bank to linear peptides [1] | Binding of Control serum LUMC to linear peptides [1] | Binding of Control serum LUMC to looped peptides [1] | Binding of antibody 03-018 to linear peptides of the N protein of SARS-CoV Urbani [2] | Binding of antibody 03-018 to looped/cyclic peptides of the N protein of SARS-CoV Urbani [2] | Binding of serum 1a to linear peptides of protein N of SARS-CoV Urbani [3] | Binding of serum 1a to looped/cyclic peptides of protein N of SARS-CoV Urbani [3] | Binding of serum 1b to linear peptides of protein N of SARS-CoV Urbani [3] | Binding of serum 1b to looped/cyclic peptides of protein N of SARS-CoV Urbani [3] | Binding of serum 2 to linear peptides of protein N of SARS-CoV Urbani [3] | Binding of serum 2 to looped/cyclic peptides of protein N of SARS-CoV Urbani [3] | Binding of serum 6 to looped/cyclic peptides of protein N of SARS-CoV Urbani [3] | Binding of serum 37 to looped/cyclic peptides of protein N of SARS-CoV Urbani [3] | Binding of serum 62 to looped/cyclic peptides of protein N of SARS-CoV Urbani [3] | Binding of serum London to looped/cyclic peptides of protein N of SARS-CoV Urbani [3] | Binding of serum SARS-green to looped/cyclic peptides of protein N of SARS-CoV Urbani [3] | Binding of serum SARS-yellow to looped/cyclic peptides of protein N of SARS-CoV Urbani [3] | Binding of a rabbit serum to linear peptides of protein N of SARS-CoV Urbani (Rabbit serum linear peptides) [4] | Binding of a rabbit serum to looped/cyclic peptides of protein N of SARS-CoV Urbani (Rabbit serum looped peptides) [4] | other results
GKEELRFPRGQGVPI | 0.9 | 0.9 | 0.8 | 0.9 | 0.1 | 0.3 | 0.3 | 0.5 | 0.1 | 0.4 | 0.3 | 0.8 | 0.3 | 0.9 | 1.1 | 0.6 | 0.9 | 0.7 | 0.1 | 0.6 | Binding of serum 6 to linear peptides of protein N of SARS-CoV Urbani [3]: 0.2; Binding of serum 37 to linear peptides of protein N of SARS-CoV Urbani [3]: 0.7; Binding of serum 62 to linear peptides of protein N of SARS-CoV Urbani [3]: 0.7; Binding of serum London to linear peptides of protein N of SARS-CoV Urbani [3]: 0.5; Binding of serum SARS-green to linear peptides of protein N of SARS-CoV Urbani [3]: 0.6; Binding of serum SARS-yellow to linear peptides of protein N of SARS-CoV Urbani [3]: 0.6
GKGQQQQGQTVTKKS | 0.6 | 0.9 | 1.0 | 0.7 | 0.1 | 0.2 |  | 1.4 |  | 0.6 |  | 0.7 | 0.4 | 0.5 | 0.6 | 0.4 | 0.6 | 0.5 | 0.2 | 0.4 | Binding of serum 1a to linear peptide (PEPSCAN-ELISA) [3]: 0.3; Binding of serum 1b to linear peptide (PEPSCAN-ELISA) [3]: 0.1; Binding of serum 2 to linear peptide (PEPSCAN-ELISA) [3]: 0.3; Binding of serum 6 to linear peptide (PEPSCAN-ELISA) [3]: 0.3; Binding of serum 37 to linear peptide (PEPSCAN-ELISA) [3]: 0.7; Binding of serum 62 to linear peptide (PEPSCAN-ELISA) [3]: 0.7; Binding of serum London to linear peptide (PEPSCAN-ELISA) [3]: 0.5; Binding of serum SARS-green to linear peptide (PEPSCAN-ELISA) [3]: 0.2; Binding of serum SARS-yellow to linear peptide (PEPSCAN-ELISA) [3]: 0.7
GKMKELSPRWYFYYL | 0.8 | 0.6 | 0.6 | 0.7 | 0.1 | 0.3 | 0.2 | 0.3 | 0.1 | 0.2 | 0.1 | 0.5 | 0.4 | 0.8 | 0.8 | 0.7 | 0.4 | 0.6 | 0.1 | 0.7 | Binding of serum 6 to linear peptides of protein N of SARS-CoV Urbani [3]: 0.1; Binding of serum 37 to linear peptides of protein N of SARS-CoV Urbani [3]: 0.5; Binding of serum 62 to linear peptides of protein N of SARS-CoV Urbani [3]: 0.5; Binding of serum London to linear peptides of protein N of SARS-CoV Urbani [3]: 0.4; Binding of serum SARS-green to linear peptides of protein N of SARS-CoV Urbani [3]: 0.2; Binding of serum SARS-yellow to linear peptides of protein N of SARS-CoV Urbani [3]: 0.6
